XC50 data for 62 compounds are collected here from ChEMBL document CHEMBL1157539, “Thousands of chemical starting points for antimalarial lead identification” (Nature, 2010).

The assay relates to Plasmodium falciparum. Briefly: GSK_TCMDC: Inhibition of Plasmodium falciparum 3D7 in whole erythrocytes, using parasite LDH activity as an index of growth. In kind it is functional, organism-based. As to conditions: Plasmodium falciparum, 3D7.
Compound `Nc1nc2c(cnn2CCCCCCCP(=O)(O)O)c(=O)[nH]1` came in with an XC50 of 469 nM.

Compound `CN1CCC(N(Cc2ccc(-c3ccc(C(F)(F)F)cc3)nc2)C(=O)Cn2c(CCc3cccc(F)c3F)cc(=O)c3ccccc32)CC1` came in with an XC50 of 1100 nM.

Take `O=c1[nH]ccc2nc(N[C@@H]3CCNC3)nc(Nc3cc(Cl)cc(Cl)c3)c12`: the XC50 was determined as 738 nM. Under `CC(C)CNCc1cccc(-c2ccc(CN(C(=O)NC3CCCCC3)C3CCN(Cc4ccccc4)CC3)cc2)c1` stands 763 nM; under `C=CCc1cc(Br)ccc1OCCCOc1c(C)nc(N)nc1N`, 3.2 nM; under `N=C(/N=C(/NCCCCCCN/C(=N/C(=N)NCc1ccc(Cl)c(Cl)c1)N1CCCCC1)N1CCCCC1)NCc1ccc(Cl)c(Cl)c1`, 567 nM. `CCCC1N=C(N)N=C(N)N1c1ccc(C)c(C)c1` (configuration not stated) came in with an XC50 of 73.6 nM. To `Cc1ccc(N(CCC(=N)N)Cc2ccccc2)cc1` belongs 657 nM. Compound `CC(C)(C)c1ccc(CN2CCC(CNC(=O)c3cc(-c4cccc(F)c4)cs3)C2)cc1` (configuration not stated) had an XC50 of 898 nM. Under `Cc1ccc(C(=O)Nc2ccc(OC3CCN(CCC(C)C)C3)c(Cl)c2)cc1` (configuration not stated) stands 991 nM. Under `Nc1ccc2[nH]cc(C3CCN(CC4CCN(C(=O)/C=C/c5ccc(Cl)c(Cl)c5)CC4)CC3)c2n1` stands 701 nM; under `COc1cc(C2=NN(S(=O)(=O)c3c(C)cc(C)cc3C)CCCC2)ccc1Cl`, 775 nM. To `Cc1cc(-c2ccc3c(c2)CCN(CCC2CCC(NC(=O)/C=C/c4cccc(Cl)c4)CC2)CC3)on1` (configuration not stated) belongs 589 nM; to `COc1ccc2ncc(F)c(NC(=O)C3CCC(NCc4cc5c(F)cccc5[nH]4)CC3)c2n1` (configuration not stated), 1090 nM. For `COc1cc2[nH]c(-c3ccc(O)cc3)c(C)c(=O)c2c(OC)c1OC`, the XC50 was found to be 717 nM. To `Cc1ccc(F)c(OCC2CCN(c3ccc(C(=O)NC4CC4)cn3)CC2)c1` belongs 733 nM. Under `C=CCOC(=O)N1CCC(CNCc2ccc(-c3cccc(-c4nc5ccccc5[nH]4)c3)cc2)C1` (configuration not stated) stands 255 nM.

Compound `C[C@H]1CN(Cc2cccc(-c3cc(CNC(=O)c4cccc(CN5CCN(CCOc6ccccc6)CC5)c4)ccc3F)c2)CCN1` gave an XC50 of 1110 nM. To `CC(=O)Nc1ccc(CN(Cc2ccc(F)cc2)Cc2cccc(Oc3ccccc3)c2)cc1` belongs 943 nM; to `O=C(Nc1ccccc1C(F)(F)F)Nc1nn(Cc2c(F)cccc2Cl)cc1Br`, 337 nM; to `C[C@H](Nc1nc(C(Oc2ccccc2)c2ccccc2)nc2[nH]ncc12)c1ccccc1` (some centres not stated), 484 nM. `CC(C)C[C@@H](CNC[C@H](CC(C)C)NC(=O)OC(C)(C)C)NC(=O)OC(C)(C)C` showed an XC50 of 1250 nM.

Consider `COc1ccc2nc3cc(Cl)ccc3c(NCCN3CCN(C)CC3)c2c1`, for which the XC50 was 124 nM. Under `CN1CCN(CCCN(Cc2ccc(-c3cccc(CNCc4ccc5c(c4)OCO5)c3)cc2)C(=O)CCC2CCCC2)CC1` stands 1010 nM. To `COc1cc2c(cc1CCNCCCCNCCc1cc3c(cc1OC)CCCC3)CCCC2` belongs 996 nM. Compound `O=C(Nc1ccc2[nH]c(-c3ccc4nc(NC(=O)C5CCCCC5)sc4c3)nc2c1)C1CCCCC1` yielded an XC50 of 612 nM. In turn, `CCCN(CCC)c1nn2c(=O)c(C(=O)N3CCN(Cc4ccccc4)CC3)cnc2s1` displayed an XC50 of 999 nM. To `CCCCCCCc1[nH]c2ccccc2c(=O)c1C` belongs 509 nM; to `COc1ccc(C(=O)CCC(=O)N(Cc2ccc(-c3ccc(CNCCc4ccc(S(C)(=O)=O)cc4)cn3)cc2)C2CC3CCC2C3)cc1F` (configuration not stated), 927 nM; to `COc1ccc2c(O)c(Br)c(C)nc2c1`, 192 nM. The compound `CCOC(=O)N1CCN(CCCCCNc2cc(C)nc(NC(=N)Nc3ccc(Cl)cc3)n2)CC1` had an XC50 of 149 nM. Under `CCCc1ccc(S(=O)(=O)Nc2ccc3c(c2)CCC3)cc1` stands 879 nM. Compound `CO/C(=C\C=C\c1cc2cc(Cl)c(Cl)cc2[nH]1)C(=O)NCCCCN1CCN(c2ccccc2OC)CC1` displayed an XC50 of 514 nM. Under `CCC(C)Oc1ccc2nc(N)nc(N)c2c1Cl` (configuration not stated) stands 177 nM; under `O=C(NCc1cccc(CN2CCOCC2)c1)c1cc(Br)cc(N2CCN(c3ccncc3)CC2)c1`, 858 nM; under `COc1c(C2CCN(CCCCNC(=O)c3oc(-c4ccc(Cl)cc4)cc3CO)CC2)ccc2c1CCCC2`, 367 nM.

The compound `N#Cc1ccc(/C=C/C(=O)NCCCCCN2CCN(C(=O)Nc3ccc(Cl)c(C(F)(F)F)c3)CC2)cc1` returned an XC50 of 780 nM. Under `Cc1cccc2nc(-c3ccc(-c4ccc(NC(=O)NCc5ccccc5)cc4)s3)[nH]c12` stands 768 nM; under `COc1cccc2sc(Nc3nc(-c4ccccn4)cs3)nc12`, 805 nM; under `COc1cc(NC(=O)/C=C/c2ccccc2OC(F)(F)F)cc(OCCN2CCN(CCN3CCOCC3)CC2)c1`, 157 nM. Take `CCOc1ccc(-c2nonc2NC(=O)c2ccco2)cc1OCC`: the XC50 came to 750 nM. Under `Cc1c(C)c2c(c(C)c1O)CC[C@@](C)(C(=O)N1CCC(CN3CCC(c4c[nH]c5ccccc45)CC3)CC1)O2` stands 657 nM; under `FC(F)(F)c1cccc(CCNc2nccc(NCc3ccccc3Cl)n2)c1`, 1170 nM. `COc1ccc(-n2nc(C)c3c2NC(=O)CC3c2ccccc2OCc2ccccc2F)cc1` (configuration not stated) registered an XC50 of 901 nM. Regarding `COc1ccccc1Cn1ccnc1SCC(=O)Nc1cc(C(F)(F)F)ccc1Cl`, the XC50 was found to be 99.9 nM.

As to `CN(C(=O)/C=C/c1c(Cl)cccc1Cl)C1CCN(CCCCCNC(=O)/C=C/c2ccc(Cl)c(Cl)c2)CC1`, the XC50 amounted to 360 nM. Under `O=C(NCCCCCN1CCC(c2c[nH]c3ccccc23)CC1)c1ccc(-c2ccccc2)nc1` stands 1020 nM; under `Fc1ccc2c(NN=Cc3ccccc3)ccnc2c1`, 739 nM; under `Cc1cc(N2CC=CCC2)nc(NC(=N)Nc2ccc(Cl)cc2)n1`, 782 nM.

In turn, `COc1cc(Cc2cnc(NCCN3CCNCC3)nc2N)ccc1OCc1ccc(C(F)(F)F)cc1` registered an XC50 of 922 nM. Under `CCOC(=O)c1ccc(N2CCN(c3cc(C)ccc3C)CC2)c(NC(=O)Nc2ccc(Cl)c(Cl)c2)c1` stands 712 nM; under `O=C(Nc1cccc(CN2CCCN(CC3CCCCC3)CC2)c1)c1ccc(Cl)c(Cl)c1`, 962 nM.

The compound `Cc1cccc(-c2nc3cc(NC(=O)c4ccc([N+](=O)[O-])o4)ccc3o2)c1` registered an XC50 of 876 nM. Under `Oc1c(Cl)cc(Nc2nccc(Nc3ccc(Oc4ccccc4)cc3)n2)cc1Cl` stands 786 nM. Take `Cc1cc(=NN=Cc2ccccc2)c2cc(F)ccc2[nH]1`: the XC50 was 579 nM. To `Cc1ccc(CON2C(N)=NC(N)=NC2(C)C)c(Cl)c1.Cc1ccc(CON2C(N)=NC(N)=NC2(C)C)cc1Cl` belongs 3.2 nM; to `CCCCCN1CCCC(CNS(=O)(=O)c2cccc(C(=O)Nc3ccc(C(F)(F)F)cc3)c2)C1` (configuration not stated), 829 nM; to `Cc1cccc(C(=O)Nc2ccnc(N(C)C3CCN(Cc4cccc(O)c4)CC3)c2)c1`, 944 nM. To `N=C(N)NCCCN(Cc1ccccc1)c1ccccc1` belongs 579 nM; to `CCNc1cc(C(=O)N[C@@H](Cc2ccc(Cl)cc2)[C@H](O)CNC2CCCCC2)cc(N2CCCCS2(=O)=O)c1`, 150 nM. To `N#Cc1ccc2c(c1)CCN(CCC1CCC(NC(=O)c3cc4ccccc4[nH]3)CC1)CC2` (configuration not stated) belongs 1010 nM; to `COC(=O)c1cccc(NC(=O)NC2CCN(c3ccnc(Nc4cc(OC)c(OC)c(OC)c4)n3)C2)c1` (configuration not stated), 512 nM.
